Source: paper PMC9572860, “Antiprotozoal Activity of Azabicyclo-Nonanes Linked to Tetrazole or Sulfonamide Cores” (Molecules, 2022)
Like-named read-outs stand apart in the source and are kept apart here.

Columns and labels:
[1] = In vitro cytotoxicity with L-6 cells; type: cell-based, rat
Procedure: (§1) Compounds were tested for their activities against strains of P. falciparum and T. b. rhodesiense via microplate assays. Their cytotoxicity was determined with rat skeletal myoblasts (L-6 cells). Chloroquine and melarsoprol served as standards (Table 1).
(§2) Assays were performed in 96-well microtiter plates, each well containing 0.1 mL of RPMI 1640 medium supplemented with 1% L-glutamine (200 mM) and 10% fetal bovine serum and 4000 L-6 cells (a primary cell line derived from rat skeletal myoblasts, ATCC CRL-1458™). Serial drug dilutions of 11 three-fold dilution steps covering a range from 100 to 0.002 μg/mL were prepared. After 70 h of incubation, the plates were inspected under an inverted microscope to assure the growth of the controls and sterile conditions. Then, 0.01 mL resazurin solution (resazurin, 12.5 mg in 100 ml double-distilled water) was added to each well and the plates incubated for another 2 h. The plates were read with a Spectramax Gemini XS microplate fluorometer (Molecular Devices Cooperation, Sunnyvale, CA, USA) using an excitation wavelength of 536 nm and an emission wavelength of 588 nm. The IC50 values were calculated by linear regression from the sigmoidal dose inhibition curves using SoftmaxPro software (Molecular Devices Cooperation, Sunnyvale, CA, USA). Podophyllotoxin (Sigma P4405) was used as control.

[2] = system: P. falciparum NF54; assay: In vitro microplate 3H-hypoxanthine incorporation assay against P. falciparum NF54; type: cell-based, Plasmodium falciparum
Procedure: as §1
(§3) In vitro activity against erythrocytic stages of P. falciparum was determined using a ^3H-hypoxanthine incorporation assay, using the drug-sensitive NF54 strain [21] or the chloroquine- and pyrimethamine-resistant K1 strain [22]. Compounds were dissolved in DMSO at 10 mg/mL and added to parasite cultures incubated in RPMI 1640 medium without hypoxanthine, supplemented with HEPES (5.94 g/L), NaHCO3 (2.1 g/L), neomycin (100 U/mL), Albumax (5 g/L) and washed human red cells A+ at 2.5% hematocrit (0.3% parasitemia). Serial drug dilutions of 11 three-fold dilution steps covering a range from 100 to 0.002 µg/mL were prepared. The 96-well plates were incubated in a humidified atmosphere at 37 °C; 4% CO2, 3% O2, 93% N2. After 48 h, 0.05 mL of ^3H-hypoxanthine (=0.5 µCi) was added to each well of the plate. The plates were incubated for an additional 24 h under the same conditions. The plates were then harvested with a Betaplate cell harvester (Wallac, Zurich, Switzerland). The red blood cells were transferred onto a glass fiber filter and washed with distilled water. The dried filters were inserted into a plastic foil with 10 mL of scintillation fluid and counted in a Betaplate liquid scintillation counter (Wallac, Zurich, Switzerland). IC50 values were calculated from sigmoidal inhibition curves by linear regression using Microsoft Excel. Chloroquine (Sigma C6628) was used as control.

[3] = system: P. falciparum K1; assay: In vitro microplate 3H-hypoxanthine incorporation assay against P. falciparum K1; type: cell-based, Plasmodium falciparum; settings: for S.I. = IC50 (Cyt.)/IC50 (P.f. K1): L-6 cytotoxicity over P.f. K1; for IC50: Plasmodium falciparum
Procedure: as §1, §3

[4] = system: L-6 cells; parameters: method as in doi:10.1007/s00706-007-0634-1; settings: rat skeletal myoblasts; read-out: Cytotox. L-6 Cells IC50; cited from earlier work
[5] = system: T. b. rhodesiense STIB 900; parameters: method as in doi:10.1007/s00706-007-0634-1; settings: cited from earlier work; for S.I. = IC50 (Cyt.)/IC50 (T.b.r.): L-6 cytotoxicity over T.b.r.; for IC50: read-out: T. Brucei Rhodesiense IC50
[6] = system: P. falciparum K1; parameters: method as in doi:10.1007/s00706-007-0634-1; settings: cited from earlier work; for IC50: K1 strain resistant to chloroquine and pyrimethamine; for S.I. = IC50 (Cyt.)/IC50 (P.f. K1): L-6 cytotoxicity over P.f. K1
[7] = system: L-6 cells; assay: In vitro cytotoxicity with L-6 cells; type: cell-based, rat; settings: rat skeletal myoblasts; average of four determinations; read-out: Cytotox. L-6 Cells IC50
Procedure: as §1, §2

[8] = system: T. b. rhodesiense STIB 900; assay: In vitro microplate resazurin assay against T. brucei rhodesiense; type: cell-based, Trypanosoma brucei rhodesiense; settings: for S.I. = IC50 (Cyt.)/IC50 (T.b.r.): L-6 cytotoxicity over T.b.r.; for IC50: Trypanosoma brucei, STIB 900 bloodstream forms, average of four determinations, read-out: T. Brucei Rhodesiense IC50
Procedure: as §1
Minimum essential medium (50 µL) supplemented with 25 mM HEPES, 1 g/L additional glucose, 1% MEM nonessential amino acids (100×), 0.2 mM 2-mercaptoethanol, 1 mM Na-pyruvate and 15% heat inactivated horse serum was added to each well of a 96-well microtiter plate. Serial drug dilutions of 11 three-fold dilution steps covering a range from 100 to 0.002 μg/mL were prepared. Then, 4 × 10^3 bloodstream forms of T. b. rhodesiense STIB 900 in 50 µL was added to each well and the plate incubated at 37 °C under a 5% CO2 atmosphere for 70 h. Ten microliters of resazurin solution (resazurin, 12.5 mg in 100 mL double-distilled water) was then added to each well and incubation continued for an additional 2–4 h. The plates were then read with a Spectramax Gemini XS microplate fluorometer (Molecular Devices Cooperation, Sunnyvale, CA, USA) using an excitation wavelength of 536 nm and an emission wavelength of 588 nm. Data were analyzed with the graphic program Softmax Pro (Molecular Devices Cooperation, Sunnyvale, CA, USA), which calculated IC50 values by linear regression and 4-parameter logistic regression from the sigmoidal dose inhibition curves. Melarsoprol (Arsobal Sanofi-Aventis, received from WHO) was used as control.

[9] = K1 strain resistant to chloroquine and pyrimethamine, average of four determinations, read-out: P. Falciparum K1 IC50

Row | IC50 [3, 9] | Structure (SMILES) | S.I. = IC50 (Cyt.)/IC50 (P.f. K1) [3] | IC50 [4] | S.I. = IC50 (Cyt.)/IC50 (T.b.r.) [5] | IC50 [5] | IC50 [6] | S.I. = IC50 (Cyt.)/IC50 (P.f. K1) [6] | S.I. = IC50 (Cyt.)/IC50 (T.b.r.) [8] | IC50 [8] | IC50 at 72 h ([1]; rat) | other results
1 |  | CCN(CC)CCCC(C)Nc1ccnc2cc(Cl)ccc12 (centres unmarked) [CQ, chloroquine, reference compound] | 606 |  |  |  |  |  |  |  |  | IC50 at 72 h ([1]; rat skeletal myoblasts, average of four determinations, read-out: Cytotox. L-6 Cells IC50): 90.9 µM; S.I. = IC50 (Cyt.)/IC50 (P.f. NF54) ([2]; L-6 cytotoxicity over P.f. NF54): 23308; IC50 ([2]; Plasmodium falciparum, NF54, read-out: P. Falciparum NF54 IC50): 0.0039 µM; IC50 ([3]; K1, read-out: P. Falciparum K1 IC50): 0.15 µM
2 |  | Cc1ccc(S(=O)(=O)N2CCC3(N4CCCC4)CC(c4ccccc4)C2C(c2ccccc2)C3)cc1 (centres unmarked) [Compound 17] |  | 9.42 µM | 7.48 | 1.26 µM | 1.3 µM | 7.25 |  |  |  | 
3 |  | Cc1ccc(S(=O)(=O)N2CCC3(N4CCCCC4)CC(c4ccccc4)C2C(c2ccccc2)C3)cc1 (centres unmarked) [Compound 16] |  | 10.5 µM | 3.96 | 2.65 µM | 1.26 µM | 8.33 |  |  |  | 
4 |  | COc1cc([C@@H]2c3cc4c(cc3[C@H](O)[C@H]3COC(=O)[C@H]23)OCO4)cc(OC)c1OC [POD, podophyllotoxin, reference compound] |  |  |  |  |  |  |  |  |  | IC50 [7]: 0.012 µM
5 | 0.36 µM | CN(C)C12CCN(CCN)C([C@@H](c3ccccc3)C1)[C@@H](c1ccccc1)C2 (racemic) [Compound 6, rac-(7R,8R)-2-[5-(Dimethylamino)-7,8-diphenyl-2-azabicyclo[3.2.2]nonan-2-yl]ethan-1-amine] | 59.7 |  |  |  |  |  | 7.36 | 2.92 µM | 21.5 µM | 
6 | 0.18 µM | NCCN1CCC2(N3CCCCC3)C[C@H](c3ccccc3)C1[C@@H](c1ccccc1)C2 (racemic) [Compound 7, rac-(7R,8R)-2-[7,8-Diphenyl-5-(piperidin-1-yl)-2-azabicyclo[3.2.2]nonan-2-yl]ethan-1-amine] | 93.3 |  |  |  |  |  | 8.66 | 1.94 µM | 16.8 µM | 
